Laboratory results: patent US20110190249A1, “THERAPEUTIC METHODS AND USES OF SAPOGENINS AND THEIR DERIVATIVES” (PHYTOPHARM PLC, priority 2002, published 2011)

Legend:
[1] = system: rat mesencephalic dopaminergic neurones; experiment: Treatment of dopaminergic neurones after MPP+ exposure (survival, neurites); assay type: cell-based; conditions: MPP+ 2 μM
Description: Smilagenin and sarsasapogenin also reverse the neurodegeneration caused by exposure to the neurotoxin 1-methyl-4-phenylpyridinium (MPP^+) in rat mesencephalic dopaminergic neurones; a model of Parkinson's disease in vitro.
Glial cell line-derived neurotrophic factor (GDNF) and brain-derived neurotrophic factor (BDNF), molecules that are involved in neuronal growth, and 17β-oestradiol were used as positive controls. Treatment with smilagenin and sarsasapogenin produced a significant increase in the neuronal survival compared to neurones exposed to MPP^+ alone (Table 8).
Exposure to MPP^+ caused not only a significant decrease in dopaminergic number but also in the percentage of neurites.

[2] = system: rat primary cortical neurones; experiment: Prevention of glutamate-induced neurodegeneration (LDH release), pre-treatment; assay type: cell-based; conditions: 30 nM, given 24 h before glutamate; LDH 24 h after glutamate; control = 100
BDNF = BDNF levels in aged rats; assay type: in vivo, rat; conditions: aged rats treated 3 months; aged untreated 1.205±0.219, young 1.647±0.277
Protocol: (§1) Aged Sprague-Dawley rats aged were divided into different groups, one control and groups treated for 2-3 months with either sarsasapogenin, episarsasapogenin cathylate or smilagenin (18 mg kg^−1 day^−1, n=10). A control group (n=14) of untreated young rats was also included in the study. The daily dose of drug was mixed in a minimum amount of food and was administered every morning separately to each rat.

aged Sprague-Dawley rats = experiment: Y-maze learning and memory test in aged rats; assay type: in vivo, rat; conditions: 18 mg kg−1 day−1 oral in food, 3 months
Protocol: as §1
A Y-maze apparatus was used for the learning and memory test. On the floor of each arm of the Y-maze is an array of copper rods to which electric current is applied whenever needed, with adjustable voltage. Each arm is 45 cm long and has a 15 W lamp at the end, which is turned on when needed. After 3 months drug administration, each rat was trained for 7 consecutive days, as follows. For each training session, the rat was put into one arm of the Y-maze, after two minutes rest, an electrical current was applied to the copper rods and the lamp of the clockwise arm was illuminated to indicate the non-stimulation area. If the rat went into that arm, one correct response was recorded, otherwise, one wrong response was recorded: This stimulation-response test was repeated 20 times each day, with a pause of 5 sec between each two consecutive tests. The number of correct responses following the twenty tests on the seventh day was used to express learning ability, (the higher the number the better the learning ability). The rats were then left resting for 30 days and the procedure was repeated once more. The number of correct responses of the 20 tests after the 30 day rest period was used to represent the memory ability

[3] = system: rat primary spinal motor neurones; experiment: Glutamate-induced neurodegeneration in spinal motor neurones (LDH); assay type: cell-based; conditions: control 100 ± 1
Protocol: The objective of this study was to examine the effects of sarsasapogenin and smilagenin on the survival of rat primary spinal motor neurones exposed to glutamate, which is known to induce neurodegeneration in this model of motor neurodegeneration.
Rat motor neurones were prepared according to the method described by (Martinou et al, Neuron, 8, 737-744, 1992). On day 10, medium was removed and the cultures were exposed to glutamate (4 microM) for 10 min at 37° C. in defined medium. After the glutamate exposure, cultures were washed with Dulbecco modified Eagle medium at 37° C. then placed in fresh culture medium containing test compounds. After 48 h, the extent of spinal motor neurone degeneration was determined by measuring the amount of lactate dehydrogenase (LDH) released into the culture medium as above.

[4] = system: rat mesencephalic dopaminergic neurones; experiment: Pre-treatment of dopaminergic neurones before MPP+ exposure (neuronal survival); assay type: cell-based; conditions: pre-treatment 30 nM; MPP+ 2 μM; MPP+ alone 55 ± 3
Description: Smilagenin and sarsasapogenin prevent the neurodegeneration caused by exposure to the neurotoxin, 1-methyl-4-phenylpyridinium (MPP^+) in rat mesencephalic dopaminergic neurones; a model of Parkinson's disease in vitro.
Glial cell line-derived neurotrophic factor (GDNF) and brain-derived neurotrophic factor (BDNF), molecules that are involved in neuronal growth, were used as positive controls.

caspase-3 = experiment: Glutamate induced caspase 3 activity in cortical neurones; assay type: cell-based, rat; conditions: 300 nM for 6 h after glutamate 100 microM 10 min; glutamate alone 131
Protocol: The objective of this study was to examine the anti-apoptotic effect of smilagenin on the caspase-3 activity, a marker of apoptosis, in rat primary cortical cultures exposed to glutamate
Rat cortical neurones were cultured for 6 days. At day 6, glutamate (100 microM, 10 min) was added. Then the cultures were washed and medium was replaced with fresh medium containing smilagenin or vehicle control (DMSO, 0.25%) for 6 h. After 6 h treatment, apoptosis was evaluated by measuring caspase 3, activity. Caspase 3 activity was detected by the cleavage of p-nitroaniline from a colorimetric caspase-3 substrate, acetyl-Asp-Glu-Val-Asp p-nitroanilide. […] has a high absorbance at 405 nm. Relative caspase-3 activity was measured as optical density. In addition the relative activity of caspase-3 was standardised to protein concentration of the sample, which was also measured as an optical density (Du et al, J Neurochem., 69, 1382-1388, 1997; Sawada et al, Faseb J., 14, 1202-1214, 2000).

dopamine (D) 1 receptor = experiment: Dopamine D1 receptor density in aged rats; assay type: in vivo, rat; conditions: aged rats treated 3 months; aged untreated 129.2±36.8, young 157.5±33.2
Protocol: as §1
By contrast, smilagenin and sarsasapogenin treatment in aged rats for 3 months restored the D1 and D2 receptor density (smilagenin 177±10.9; 217±45.7 fmol/mg protein; sarsasapogenin 172.0±44.0; 206.4±60.5 respectively).

C[C@@H]1CC[C@@]2(OC1)O[C@H]1C[C@H]3[C@@H]4CC[C@@H]5C[C@@H](O)CC[C@]5(C)[C@H]4CC[C@]3(C)[C@H]1[C@@H]2C [smilagenin]
Percentage of neurites in dopaminergic neurones after MPP+ exposure, Mean ± s.e.m (%) ([1]; 0.03 nM, control 41 ± 4, MPP+ alone 27 ± 5): 41 ± 4%
Dopaminergic neurones after MPP+ exposure (survival), Mean ± s.e.m (%) ([1]; treatment 0.03 nM, MPP+ alone 76 ± 4): 111 ± 6%
Prevention of glutamate-induced neurodegeneration, Mean ± s.e.m (%) [2]: 91 ± 4%
BDNF levels (BDNF): 1.342±0.07 ng/g tissue
Learning and memory ability (Y-maze) (aged Sprague-Dawley rats): restored the learning and memory ability
Glutamate-induced neurodegeneration in spinal motor neurones, Mean ± s.e.m (%) ([3]; 0.03 nM for 48 h after glutamate 4 microM 10 min): 128 ± 4%
Glutamate-induced neurodegeneration in spinal motor neurones, Mean ± s.e.m (%) ([3]; 3 nM for 48 h after glutamate 4 microM 10 min): 154 ± 1%
Glutamate-induced neurodegeneration in spinal motor neurones, Mean ± s.e.m (%) ([3]; 300 nM for 48 h after glutamate 4 microM 10 min): 144 ± 4%
Dopaminergic neurones after MPP+ exposure (survival), Mean ± s.e.m (%) [4]: 98 ± 4%
Caspase activity (% of control) (caspase-3): 105 % of control
D1 receptor density (dopamine (D) 1 receptor): 177±10.9 fmol/mg protein
